For experiment [1], the system named is glucocorticoid receptor. In words: Glucocorticoid receptor cell assays, antagonist activity. In kind it is cell-based. As to conditions: assay not given. As to the method:
B. Glucocorticoid Receptor Cell Assays
Evaluation of agonist or antagonist activity of compounds binding to the glucocorticoid receptor may be determined by any of the assays.
3. Modulation of Tyrosine Aminotransferase (TAT) Induction in Rat Hepatoma Cells
Testing of compounds for agonist or antagonist activity in induction of tyrosine aminotransferase (TAT) in rat hepatoma cells.
H4-II-E-C3 cells were incubated overnight in 96 well plates (20,000 cells/100 μL/well) in MEM medium containing 10% heat inactivated FBS and 1% nonessential amino acids. On the next day, cells were stimulated with the indicated concentrations of dexamethasone or test compound (dissolved in DMSO, final DMSO concentration 0.2%) for 18 hours. Control cells were treated with 0.2% DMSO. After 18 hours, the cells were lysed in a buffer containing 0.1% Triton X-100 and the TAT activity was measured in a photometric assay using tyrosine and alpha-ketoglutarate as substrates. […]
Cells were cultured overnight in DMEM medium without phenol red, supplemented with 3% CCS (charcoal treated calf serum) and then transferred to 96 well plates (15,000 cells/100 μL/well). […] After 18 hours, the cells were lysed with cell lysis reagent (Promega, Cat. No. E1531), luciferase assay reagent (Promega, Cat. No. E1501) was added and the glow luminescence was measured using a luminometer (BMG, Offenburg). […]

For experiment [2], the system named is glucocorticoid receptor. Nature of the experiment: Glucocorticoid receptor function, one or more of the above assays (binding and cell assays). The class given is cell-based. The following applies: in one or more of the above assays; assay not given. The procedure:
Compounds of the invention were evaluated for binding to the steroid receptor by a fluorescence polarization competitive binding assay. Detailed descriptions for preparation of recombinant glucocorticoid receptor (GR) complex used in the assay is described in U.S. Patent Application Publication No. 2003/0,017,503, filed May 20, 2002, and the corresponding U.S. provisional application No. 60/291,877, filed May 18, 2001, each of which is incorporated herein by reference in its entirety. Preparation of the tetramethyl rhodamine (TAMRA)-labeled dexamethasone probe was accomplished using a standard literature procedure (M. Pons et al., J. Steroid Biochem., 1985, 22, pp. 267-273).
This assay uses fluorescence polarization (FP) to quantitate the ability of test compounds to compete with tetramethyl rhodamine (TAMRA)-labeled dexamethasone for binding to a human glucocorticoid receptor (GR) complex prepared from an insect expression system. […]
The binding reactions were incubated for 1 hour at room temperature and then read for fluorescence polarization in the LJL Analyst set to 550 nm excitation and 580 nm emission, with the Rhodamine 561 dichroic mirror installed. IC50 values were determined by iterative non-linear curve fitting of the FP signal data to a 4-parameter logistic equation. […]

Results on 3 molecules are retold here after patent US6858627B2, “Glucocorticoid mimetics, methods of making them, pharmaceutical compositions, and uses thereof” (Boehringer Ingelheim Pharmaceuticals, Inc., priority 2002, dated 2005).

With `C=CCOC(C)C1=CC(C)(C)Nc2ccc(-c3ccccc3OC)cc21` (stereo not drawn) [4-(1-Allyloxyethyl)-6-(2-methoxyphenyl)-2,2-dimethyl-1,2-dihydroquinoline], in the experiment on glucocorticoid receptor [1], the “activity as antagonists in cellular assays” value is recorded as “potent activity as antagonists”. As to `C=CCSCC1=CC(C)(C)Nc2ccc(-c3ccccc3OC)cc21` [4-Allylsulfanylmethyl-6-(2-methoxyphenyl)-2,2-dimethyl-1,2-dihydroquinoline], the “activity as antagonists in cellular assays” value in the experiment with glucocorticoid receptor [1] was “potent activity as antagonists”. `C=CCOC(C)C1=CC(C)(C)Nc2ccc(-c3cc(F)ccc3OC)cc21` (stereo not drawn) [4-(1-Allyloxyethyl)-6-(5-fluoro-2-methoxyphenyl)-2,2-dimethyl-1,2-dihydroquinoline]: the “activity as an agonist of the glucocorticoid receptor function” value in the experiment with glucocorticoid receptor [2] is given as “activity as an agonist”.
